The source made the active and inactive calls.
Key:
[1] = Fluorescence polarization-based biochemical high throughput dose response assay for activators of the Protein Kinase A-R2B (PKA-R2B) complex. [Related pubchem assays (depositor defined):AID504700, AID504704, AID504796, AID504797]
HEK293 = assay: optical interference in Abeta FP readout, dose response, artefact control for IDE activator project, biochemical, fluorescence polarization (AID 588442); type: functional, cell-based; settings: Homo sapiens
[2] = target: T1, Dual specificity protein phosphatase 6 (Rattus norvegicus, UniProt Q64346); assay: MKP-3 phosphatase inhibitors, primary screen, biochemical, rat enzyme, in vitro (AID 425)
T1 sequence (Q64346 whole entry): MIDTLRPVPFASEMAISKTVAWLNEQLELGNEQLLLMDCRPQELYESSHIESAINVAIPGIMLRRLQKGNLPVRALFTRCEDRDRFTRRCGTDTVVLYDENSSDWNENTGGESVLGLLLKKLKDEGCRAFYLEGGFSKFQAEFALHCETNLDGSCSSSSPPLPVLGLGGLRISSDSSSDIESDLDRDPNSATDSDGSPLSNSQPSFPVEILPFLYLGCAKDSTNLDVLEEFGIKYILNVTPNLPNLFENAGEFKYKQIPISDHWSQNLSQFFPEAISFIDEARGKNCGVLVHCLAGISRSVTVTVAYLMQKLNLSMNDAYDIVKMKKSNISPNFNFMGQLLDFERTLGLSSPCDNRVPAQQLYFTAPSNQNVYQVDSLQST

[3] = activation of PKA-R1A holoenzyme dissociation, dose response, counter-screen for PKA-R2B activator project, biochemical, Cy5-IP20 fluorescence polarization, 1536-well, triplicate (AID 504896)
[4] = target: T2, Sentrin-specific protease 8 (Homo sapiens, UniProt Q96LD8); type: functional
T2 sequence (Q96LD8 whole entry): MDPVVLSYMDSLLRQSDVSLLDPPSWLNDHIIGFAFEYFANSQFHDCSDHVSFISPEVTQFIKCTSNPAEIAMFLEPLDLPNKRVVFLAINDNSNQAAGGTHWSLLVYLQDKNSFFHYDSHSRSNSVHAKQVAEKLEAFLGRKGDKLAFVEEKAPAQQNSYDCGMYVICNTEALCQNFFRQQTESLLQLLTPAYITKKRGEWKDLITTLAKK

SUMO-activating enzyme [5] = target: T3, SUMO-activating enzyme (Homo sapiens, UniProt Q9UBT2); assay: SUMOylation inhibitor hit validation, confirmation, SUMOylation inhibitor project, biochemical, AlphaScreen (AID 2018); type: functional
[6] = target: T4, Sentrin-specific protease 7 (Homo sapiens, UniProt Q9BQF6); type: functional;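 note: Luminescence-based dose-response confirmation of ultra-high-throughput screening hits, measuring inhibition of SENP7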
T4 sequence (Q9BQF6 whole entry): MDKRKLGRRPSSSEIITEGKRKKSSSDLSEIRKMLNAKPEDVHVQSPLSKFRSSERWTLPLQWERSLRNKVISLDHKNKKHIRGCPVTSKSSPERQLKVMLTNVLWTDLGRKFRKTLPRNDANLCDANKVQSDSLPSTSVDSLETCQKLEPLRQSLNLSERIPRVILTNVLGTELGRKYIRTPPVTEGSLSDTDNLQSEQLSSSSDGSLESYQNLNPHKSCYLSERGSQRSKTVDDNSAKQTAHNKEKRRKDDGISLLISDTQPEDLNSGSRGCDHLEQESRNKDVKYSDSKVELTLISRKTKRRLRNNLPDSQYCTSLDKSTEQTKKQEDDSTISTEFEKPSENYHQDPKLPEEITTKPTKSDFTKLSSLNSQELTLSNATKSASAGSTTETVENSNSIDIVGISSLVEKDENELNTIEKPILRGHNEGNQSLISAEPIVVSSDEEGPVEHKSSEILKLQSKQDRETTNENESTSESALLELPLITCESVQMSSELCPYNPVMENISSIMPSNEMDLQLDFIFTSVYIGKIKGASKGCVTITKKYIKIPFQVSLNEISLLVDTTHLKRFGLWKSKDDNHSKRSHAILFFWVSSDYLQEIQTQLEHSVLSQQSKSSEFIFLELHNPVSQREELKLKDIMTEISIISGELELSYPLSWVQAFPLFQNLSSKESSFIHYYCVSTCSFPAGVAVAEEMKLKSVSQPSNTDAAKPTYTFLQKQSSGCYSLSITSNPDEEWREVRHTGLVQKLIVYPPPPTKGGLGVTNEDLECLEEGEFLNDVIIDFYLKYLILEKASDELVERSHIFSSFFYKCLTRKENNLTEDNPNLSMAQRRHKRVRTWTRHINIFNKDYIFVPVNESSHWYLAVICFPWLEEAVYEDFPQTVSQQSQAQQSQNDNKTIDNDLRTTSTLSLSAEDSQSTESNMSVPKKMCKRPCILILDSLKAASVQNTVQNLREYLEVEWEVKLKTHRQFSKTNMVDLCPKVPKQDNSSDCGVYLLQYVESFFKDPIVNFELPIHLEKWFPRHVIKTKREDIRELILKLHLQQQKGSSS

[7] = target: Serine/threonine-protein phosphatase PP1-alpha catalytic subunit (Homo sapiens, UniProt P62136); assay: PP1 phosphatase inhibitors, dose response, biochemical, fluorescence (AID 2394)
SUMO-activating enzyme [8] = target: T3, SUMO-activating enzyme; assay: inhibitors of in vitro SUMOylation cascade, primary screen, biochemical, HTRF, uHTS (AID 2006); type: protein-complex assay
[9] = target: T2, Sentrin-specific protease 8; type: functional; remark: listed apart in the source
[10] = target: Tyrosine-protein kinase JAK3 (Homo sapiens, UniProt P52333); type: functional
[11] = target: Serine/threonine-protein kinase TAO1 (Homo sapiens, UniProt Q7L7X3); type: functional
[12] = target: Fibroblast growth factor receptor 1 (Homo sapiens, UniProt P11362); type: functional
[13] = target: Dual specificity mitogen-activated protein kinase kinase 1 (Homo sapiens, UniProt Q02750); assay: Navigating the Kinome. Panel member name: MAP2K1; type: functional
[14] = target: Hepatocyte growth factor receptor (Homo sapiens, UniProt P08581); type: functional;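 note: kinase panel profiling across the kinome, with MET as the panel member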
[15] = target: Mitogen-activated protein kinase kinase kinase kinase 2 (Homo sapiens, UniProt Q12851); type: functional;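 note: measured as one member of a kinome-wide kinase panel, with MAP4K2 as the panel entry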
[16] = target: Tyrosine-protein kinase ABL1 (Homo sapiens, UniProt P00519); type: functional
[17] = target: Tyrosine-protein kinase BTK (Homo sapiens, UniProt Q06187); type: functional
[18] = target: Mitogen-activated protein kinase 9 (Homo sapiens, UniProt P45984); type: functional;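 note: value from a kinome panel profiling assay, MAPK9 panel entry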

T3 sequence (Q9UBE0 whole entry): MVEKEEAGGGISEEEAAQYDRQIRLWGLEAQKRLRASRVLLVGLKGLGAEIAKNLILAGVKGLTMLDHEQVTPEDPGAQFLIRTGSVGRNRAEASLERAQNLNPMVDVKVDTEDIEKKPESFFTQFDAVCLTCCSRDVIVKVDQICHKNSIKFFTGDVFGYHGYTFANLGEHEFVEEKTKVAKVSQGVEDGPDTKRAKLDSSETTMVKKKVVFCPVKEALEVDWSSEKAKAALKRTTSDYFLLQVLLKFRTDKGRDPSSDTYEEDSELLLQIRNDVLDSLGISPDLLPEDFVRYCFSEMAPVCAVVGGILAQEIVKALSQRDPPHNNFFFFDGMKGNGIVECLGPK
T3 sequence (Q9UBT2 whole entry): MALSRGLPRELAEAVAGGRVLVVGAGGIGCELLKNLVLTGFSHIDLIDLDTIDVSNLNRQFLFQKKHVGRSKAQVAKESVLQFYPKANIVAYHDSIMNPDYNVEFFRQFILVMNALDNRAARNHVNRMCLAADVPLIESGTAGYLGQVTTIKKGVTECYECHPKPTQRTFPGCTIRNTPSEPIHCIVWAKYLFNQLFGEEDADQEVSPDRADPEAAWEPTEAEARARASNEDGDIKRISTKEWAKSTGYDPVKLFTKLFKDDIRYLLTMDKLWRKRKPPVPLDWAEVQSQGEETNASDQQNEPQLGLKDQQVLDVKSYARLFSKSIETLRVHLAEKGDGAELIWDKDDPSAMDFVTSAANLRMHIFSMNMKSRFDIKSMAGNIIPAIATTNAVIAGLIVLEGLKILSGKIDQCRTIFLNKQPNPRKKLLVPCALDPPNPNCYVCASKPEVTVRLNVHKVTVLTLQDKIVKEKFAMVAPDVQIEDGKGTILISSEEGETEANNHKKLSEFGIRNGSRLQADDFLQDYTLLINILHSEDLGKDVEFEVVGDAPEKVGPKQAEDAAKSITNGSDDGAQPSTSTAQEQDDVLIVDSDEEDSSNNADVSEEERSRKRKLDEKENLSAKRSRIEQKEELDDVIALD
Chain of Tyrosine-protein kinase JAK3 (P52333 whole entry): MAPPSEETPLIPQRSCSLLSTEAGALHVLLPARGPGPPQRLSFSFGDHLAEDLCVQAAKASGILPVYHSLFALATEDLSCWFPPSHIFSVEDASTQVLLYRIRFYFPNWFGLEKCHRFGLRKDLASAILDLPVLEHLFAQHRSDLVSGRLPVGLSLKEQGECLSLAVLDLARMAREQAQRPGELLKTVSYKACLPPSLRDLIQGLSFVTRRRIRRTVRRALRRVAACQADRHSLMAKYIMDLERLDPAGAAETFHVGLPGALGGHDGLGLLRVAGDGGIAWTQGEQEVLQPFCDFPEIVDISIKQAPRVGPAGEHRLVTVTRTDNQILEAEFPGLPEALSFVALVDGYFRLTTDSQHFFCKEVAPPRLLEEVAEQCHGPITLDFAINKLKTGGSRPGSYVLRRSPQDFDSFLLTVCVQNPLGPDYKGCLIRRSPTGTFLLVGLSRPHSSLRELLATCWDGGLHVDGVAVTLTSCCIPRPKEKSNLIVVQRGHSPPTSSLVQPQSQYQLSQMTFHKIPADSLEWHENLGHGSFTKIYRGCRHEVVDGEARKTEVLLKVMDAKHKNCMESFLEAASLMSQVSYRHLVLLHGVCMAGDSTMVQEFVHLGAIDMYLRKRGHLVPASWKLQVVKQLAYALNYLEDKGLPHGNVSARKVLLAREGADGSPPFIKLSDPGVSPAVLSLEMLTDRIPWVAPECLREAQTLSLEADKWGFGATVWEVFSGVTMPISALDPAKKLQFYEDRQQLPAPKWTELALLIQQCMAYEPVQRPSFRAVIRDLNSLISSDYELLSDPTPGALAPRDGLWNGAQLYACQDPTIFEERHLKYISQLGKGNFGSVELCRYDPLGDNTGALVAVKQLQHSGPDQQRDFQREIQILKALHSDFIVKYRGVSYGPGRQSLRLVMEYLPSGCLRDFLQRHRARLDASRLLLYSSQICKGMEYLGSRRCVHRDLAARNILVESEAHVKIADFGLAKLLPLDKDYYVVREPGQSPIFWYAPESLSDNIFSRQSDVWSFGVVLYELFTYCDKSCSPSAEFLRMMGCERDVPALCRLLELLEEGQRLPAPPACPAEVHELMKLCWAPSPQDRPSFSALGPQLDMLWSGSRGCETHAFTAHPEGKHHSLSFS
Chain of Serine/threonine-protein phosphatase PP1-alpha catalytic subunit (P62136 whole entry): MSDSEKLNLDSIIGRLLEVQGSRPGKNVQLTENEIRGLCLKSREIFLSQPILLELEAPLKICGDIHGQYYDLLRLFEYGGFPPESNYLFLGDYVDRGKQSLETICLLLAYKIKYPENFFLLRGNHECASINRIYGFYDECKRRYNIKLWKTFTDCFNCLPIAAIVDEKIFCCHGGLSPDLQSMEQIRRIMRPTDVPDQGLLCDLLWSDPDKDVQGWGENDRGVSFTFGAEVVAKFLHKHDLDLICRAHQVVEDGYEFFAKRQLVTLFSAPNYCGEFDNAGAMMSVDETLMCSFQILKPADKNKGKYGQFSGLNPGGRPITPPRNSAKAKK
Chain of Hepatocyte growth factor receptor (P08581 whole entry): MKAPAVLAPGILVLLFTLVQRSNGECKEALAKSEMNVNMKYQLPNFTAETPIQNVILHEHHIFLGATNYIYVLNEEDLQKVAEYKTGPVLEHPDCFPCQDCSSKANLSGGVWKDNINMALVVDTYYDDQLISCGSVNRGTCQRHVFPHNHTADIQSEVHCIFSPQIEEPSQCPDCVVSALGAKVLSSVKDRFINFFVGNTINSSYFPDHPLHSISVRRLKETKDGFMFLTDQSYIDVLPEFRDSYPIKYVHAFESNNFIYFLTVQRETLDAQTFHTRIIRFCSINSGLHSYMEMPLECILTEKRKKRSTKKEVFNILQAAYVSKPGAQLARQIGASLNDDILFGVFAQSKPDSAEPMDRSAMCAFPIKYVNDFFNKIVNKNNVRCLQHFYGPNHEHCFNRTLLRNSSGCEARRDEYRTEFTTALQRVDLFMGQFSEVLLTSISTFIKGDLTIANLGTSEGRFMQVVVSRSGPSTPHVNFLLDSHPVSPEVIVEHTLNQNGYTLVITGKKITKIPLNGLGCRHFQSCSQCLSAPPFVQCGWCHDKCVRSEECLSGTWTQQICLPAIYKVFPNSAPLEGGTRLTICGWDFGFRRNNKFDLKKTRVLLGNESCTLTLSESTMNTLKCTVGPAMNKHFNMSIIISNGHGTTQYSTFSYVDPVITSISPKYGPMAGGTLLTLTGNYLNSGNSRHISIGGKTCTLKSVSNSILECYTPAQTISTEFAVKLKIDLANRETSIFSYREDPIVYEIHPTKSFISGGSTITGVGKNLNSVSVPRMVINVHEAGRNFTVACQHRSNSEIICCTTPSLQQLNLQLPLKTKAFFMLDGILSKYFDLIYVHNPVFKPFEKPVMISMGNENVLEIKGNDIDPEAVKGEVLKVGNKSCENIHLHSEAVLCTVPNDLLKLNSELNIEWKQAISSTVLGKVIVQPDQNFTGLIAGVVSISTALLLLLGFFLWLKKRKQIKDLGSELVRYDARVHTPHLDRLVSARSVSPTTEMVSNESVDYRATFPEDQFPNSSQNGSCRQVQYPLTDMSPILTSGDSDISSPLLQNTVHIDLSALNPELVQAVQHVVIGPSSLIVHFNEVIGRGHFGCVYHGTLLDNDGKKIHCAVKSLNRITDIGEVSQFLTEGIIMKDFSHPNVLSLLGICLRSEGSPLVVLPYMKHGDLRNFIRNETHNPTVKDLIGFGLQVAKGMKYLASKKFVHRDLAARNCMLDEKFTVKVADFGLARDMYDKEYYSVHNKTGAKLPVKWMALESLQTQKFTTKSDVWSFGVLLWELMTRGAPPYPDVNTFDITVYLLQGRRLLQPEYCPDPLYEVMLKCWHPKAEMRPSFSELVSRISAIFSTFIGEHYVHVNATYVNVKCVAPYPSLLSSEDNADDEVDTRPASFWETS
Chain of Serine/threonine-protein kinase TAO1 (Q7L7X3 whole entry): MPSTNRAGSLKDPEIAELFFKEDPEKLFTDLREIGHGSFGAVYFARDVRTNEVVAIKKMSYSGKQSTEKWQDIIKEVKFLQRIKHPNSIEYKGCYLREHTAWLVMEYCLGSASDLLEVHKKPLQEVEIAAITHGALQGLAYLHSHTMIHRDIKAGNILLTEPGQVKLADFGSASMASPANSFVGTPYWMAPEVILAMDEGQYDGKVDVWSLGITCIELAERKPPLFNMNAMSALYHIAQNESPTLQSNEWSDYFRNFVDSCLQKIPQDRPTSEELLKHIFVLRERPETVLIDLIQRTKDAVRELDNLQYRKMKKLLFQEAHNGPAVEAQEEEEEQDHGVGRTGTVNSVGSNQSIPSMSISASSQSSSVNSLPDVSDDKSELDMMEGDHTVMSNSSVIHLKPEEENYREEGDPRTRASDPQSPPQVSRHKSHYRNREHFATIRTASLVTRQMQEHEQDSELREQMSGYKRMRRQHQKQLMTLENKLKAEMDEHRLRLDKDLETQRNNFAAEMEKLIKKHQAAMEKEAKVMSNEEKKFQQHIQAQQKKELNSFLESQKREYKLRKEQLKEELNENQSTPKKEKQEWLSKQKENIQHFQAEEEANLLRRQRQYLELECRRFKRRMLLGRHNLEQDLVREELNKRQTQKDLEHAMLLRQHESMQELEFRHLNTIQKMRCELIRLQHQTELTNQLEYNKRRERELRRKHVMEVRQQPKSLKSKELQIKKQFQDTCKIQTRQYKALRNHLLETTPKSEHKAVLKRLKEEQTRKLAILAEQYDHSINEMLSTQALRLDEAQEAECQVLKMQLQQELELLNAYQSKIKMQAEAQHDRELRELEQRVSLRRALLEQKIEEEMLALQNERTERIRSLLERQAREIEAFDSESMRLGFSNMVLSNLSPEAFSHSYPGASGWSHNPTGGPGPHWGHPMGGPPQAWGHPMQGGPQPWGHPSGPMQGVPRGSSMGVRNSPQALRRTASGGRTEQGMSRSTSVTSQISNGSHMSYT

## O=S(=O)(O)c1cccc2c(N=Nc3ccc(O)c4ncccc34)cccc12
[1]
  EC50: > 114 µM (inactive)
HEK293
  EC50: 5.53 µM (active)
[2]
  IC50: 71.5 µM (active)
[3]
  EC50: > 114 µM (inactive)

## O=C(NNc1cc(N2CCCC2)nc(N2CCCC2)n1)c1ccc([N+](=O)[O-])cc1
[4]
  IC50: 2.12 µM (active)
SUMO-activating enzyme [5]
  IC50: 1.82 µM (active)
[6]
  IC50: 2.55 µM (active)
[7]
  IC50: > 67 µM (not active)
SUMO-activating enzyme [8]
  IC50: 5.63 µM (active)
[9]
  IC50: 0.155 µM (active)

## O=C(Cc1cccs1)Nc1nc2ccccc2s1
[10]
  Ki: > 5.01 µM (inactive)
[11]
  Ki: 6.31 µM (active)
[12]
  Ki: 0.631 µM (active)
[13]
  Ki: 2 µM (active)
[14]
  Ki: 0.316 µM (active)
[15]
  Ki: 2 µM (active)
[16]
  Ki: > 2.51 µM (inactive)
[17]
  Ki: 3.16 µM (active)
[18]
  Ki: 3.16 µM (active)

Reference: ChEMBL document CHEMBL1201862, “PubChem BioAssay data set” (2004)
